Measured values taken from patent EP4775569A1, “3CL PROTEASE INHIBITOR FOR TREATING OR PREVENTING CORONAVIRUS INFECTIONS AND USE THEREOF” (The Global Health Drug Discovery Institute, priority 2023, dated 2025).
Like-named read-outs stand apart in the source and are kept apart here.

Tests used:
[1] = Toxicity Testing in Uninfected Cells; assay type: cell-based; details: human, Cell-Titer Glo cell viability
Procedure: Toxicity Testing in Uninfected Cells
The compound was transferred to a 1536-well plate (Corning No. 9006BC), and then Hela-ACE cells were added (cell density: 600 cells/5 microliter of medium MEM with 2% FBS). After the assay plate was incubated at 37°C in 5% CO2 for 48 hours, cell viability was tested. 2 µL of 50% Cell-Titer Glo (Promega No G7573) was diluted in water and added to a cell assay plate, and then a value on EnVision Plate Reader (Perkin Elmer) was read.

SARS-CoV-2 = assay: SARS-CoV-2/Hela-ACE Test; assay type: cell-based
SARS-CoV-2 3CLpro = SARS-CoV-2 3CLpro (Severe acute respiratory syndrome coronavirus 2, UniProt P0DTD1); assay: Enzyme Activity Test; assay type: biochemical
[2] = uninfected Hela-ACE (HeLa ACE2) cells
[3] = Severe acute respiratory syndrome coronavirus 2, Hela-ACE cells infected with SARS-CoV-2 (USA-WA1/2020), MOI 0.75-1, 48 hours, read-out: Hela ACE2-CoV-2 EC50

| Structure (SMILES) | CC50 at 48 h [1, 2] [µM] | EC50 (SARS-CoV-2; [3]) [µM] | IC50 (SARS-CoV-2 3CLpro) [µM] | CC50 at 48 h ([1]; hela-ace2 cells, uninfected Hela-ACE cells) [µM] | EC50 (SARS-CoV-2; Severe acute respiratory syndrome coronavirus 2, HeLa, 48 h, read-out: Hela ACE2-CoV-2 EC50 (µM)) [µM] |
| --- | --- | --- | --- | --- | --- |
| O=C1CCN(c2cc(Cl)cc(OCC(F)(F)F)c2)C(=O)N1c1cncc2ccccc12 [Example 2] | > 99 | 0.03 | – | – | – |
| Cc1cncc(N2C(=O)CCN(c3cc(Cl)cc(OCC(F)(F)F)c3)C2=O)c1C [Example 47] | – | – | 0.055 | – | – |
| O=C1N(c2cc(Cl)cc(OCC(F)(F)F)c2)CC2(CC2)C(=O)N1c1cncc2ccccc12 [Example 33] | > 99 | 0.087 | – | – | – |
| O=C1CCN(c2cc(Cl)cc(OCC3CC(F)(F)C3)c2)C(=O)N1c1cncc2ccccc12 [Example 5] | > 99 | 0.074 | – | – | – |
| O=C1CCN(c2cc(Cl)cc(N3CC4(COC4)C3)c2)C(=O)N1c1cncc2ccccc12 [Example 23] | > 99 | 0.035 | – | – | – |
| O=C1CCN(c2cc(Cl)cc(OCC3CC3)c2)C(=O)N1c1cncc2ccccc12 [Example 3] | 73.4 | 0.064 | – | – | – |
| O=C1CCN(c2cc(F)c(Cl)c(OCC(F)(F)F)c2)C(=O)N1c1cncc2ccccc12 [Example 55] | 74 | 0.072 | – | – | – |
| Cc1ccc2cncc(N3C(=O)CCN(c4cc(Cl)cc(OCC(F)(F)F)c4)C3=O)c2c1 [Example 48] | – | – | 0.05 | > 99 | 0.052 |
| O=C1CCN(c2cc(Cl)cc(OCC(F)(F)F)c2)C(=O)N1c1cncc2ccc(F)cc12 [Example 49] | – | – | 0.043 | – | – |
